Patent US6057333A, “Discorhabdin compounds and methods of use” (Harbor Branch Oceanographic Institution, Inc., priority 1998, dated 2000)
In brackets after ≈: the same amount, converted by molar mass.

Assays:
P388 cells = experiment: P388 antiproliferative (MTT) assay; format: cell-based; conditions: Mus musculus, 48 hr exposure
Protocol: (§1) P388 cells are obtained from Dr. J. Mayo, National Cancer Institute, Bethesda, Md., and A549 cells are obtained from American Type Culture Collection, Rockville, Md. All cell lines are maintained in Roswell Park Memorial Institute (RPMI) medium 1640 supplemented with 10% horse serum. All cell lines are cultured in plastic tissue culture flasks and kept in an incubator at 37° C. in humidified air containing 5% CO2. Prior to testing, antibiotic-free stock cultures of each of the cell lines are subcultured to 10^6 cells/ml by dilution in fresh growth medium at 2 to 3 day intervals.
(§2) To assess the antiproliferative effects of agents against the P388 cell line, 200 μl cultures (96-well tissue culture plates, Nunc, Denmark) are established at 1×10^5 cells/ml in drug-free medium or medium containing the test agent at 10.0, 1.0, 0.10 and 0.010 μg/ml. Solvent for all dilutions ethanol. All experimental cultures are initiated in medium containing Gentamycin sulfate (50 μg/ml; Schering Corporation, Kenilworth, N.J.). After48 hr exposures, P388 cells are enumerated using 3-[4,5-Dimethylthiazol-2-yl]-2,5-diphenyltetrazolium bromide (MTT).
To quantitate the effects on cell proliferation and resulting IC50 values, 75 μl of warm growth media containing 5 mg/ml MTT is added to each well, cultures returned to the incubator, and left undisturbed for 90 minutes. […]

A549 cells = experiment: A549 antiproliferative (MTT) assay; format: cell-based; conditions: Homo sapiens, additional 48 hr exposure prior to MTT addition
Protocol: as §1, §2
[…] Results are expressed as percent inhibition compared to the negative (no drug) control. Positive drug controls are included to monitor drug sensitivity of each of the cell lines. […]

calcineurin = target: T1, calcineurin (Bos taurus, UniProt P48452); experiment: Calcineurin assay (p-nitrophenylphosphate phosphatase activity); format: biochemical, bovine; conditions: pH 7.5, 30° C., 60 min
T1 construct: Calcineurin was prepared from bovine brain; from tissue; host or cells: bovine brain
Protocol: Calmodulin was prepared from bovine brain according to the method of Wallace et al. ([1983] Meth. Enzymol. 102:39-47). The calmodulin was either used directly or coupled to sepharose-4B to form the calmodulin-sepharoseaffinity column necessary for the isolation of calcineurin. Calcineurin was prepared from bovine brain by the method of Tallant et al. ([1983] Meth. Enzymol. 102:244-286), concentrated, aliquoted and stored at -80° C.
Calcineurin activity was assayed in 96-well microtiter plates in a final volume of 50 μl. Each well contained 50 mM Tris-HCl pH 7.5, 0.5 mM MnCl2, 0.05 mM CaCl2, 1 mM DTT, 50 mM p-nitrophenylphosphate (pNPP), 0.3 μg calcineurin, a five-fold excess of calmodulin, and either test samples or control compounds. Plates were incubated at 30° C. for 60 min. Liberated p-nitrophenol was determined by the change in absorbance at 405 nm.

CPP32 = target: T2, CPP32 (Homo sapiens, UniProt P42574); experiment: Caspase inhibition (CPP32, Ac-DEVD-pNA substrate); format: biochemical; conditions: Ac-DEVD-pNA 25 μM, pH 7.5, 30 degrees C., 30 minutes
T2 construct: BASF, Worchester, Mass; (gift, not a purchase)
T2 sequence (P42574 29-175 limits assumed): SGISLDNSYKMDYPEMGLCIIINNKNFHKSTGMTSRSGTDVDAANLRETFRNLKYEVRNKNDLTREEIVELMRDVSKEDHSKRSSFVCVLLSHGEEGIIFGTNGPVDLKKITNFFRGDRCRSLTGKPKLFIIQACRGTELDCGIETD
T2 sequence (P42574 176-277 limits assumed): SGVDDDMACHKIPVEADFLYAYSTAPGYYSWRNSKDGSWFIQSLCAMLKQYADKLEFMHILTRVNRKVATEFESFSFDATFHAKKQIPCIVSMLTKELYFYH
Protocol: Test samples were aliquoted into 96 well microtiter plates and allowed to air dry. The stock CPP32 enzyme (kindly supplied by BASF, Worchester, Mass.) was diluted by adding 10 μl of the enzyme to 17 ml of reaction buffer (50 mM Hepes pH 7.5; 10% glycerol; 5 mM Dithiothreitol; 0.5 mM EDTA). A volume of 180 μl of the diluted enzyme was added to wells containing the dried test samples, or to empty wells (control). The contents of the microtiter wells were mixed by shaking on a plate shaker. Plates were incubated at 30 degrees C. for 5 minutes. […] Controls for each plate consisted of an inhibitor control (50 nM DEVD-CHO final concentration); positive control (enzyme and substrate) and negative control (reaction buffer and substrate). The plates were covered with aluminum foil and mixed using a plate shaker for 5 minutes then incubated at 30 degrees C. for 30 minutes. Plates were read using on a plate reader with absorbance measured at 405 nm. Data was expressed as percent inhibition by comparing the absorbance values of test samples with those of the positive control (no sample).

T1 sequence (P63099 2-170, other chains not shown): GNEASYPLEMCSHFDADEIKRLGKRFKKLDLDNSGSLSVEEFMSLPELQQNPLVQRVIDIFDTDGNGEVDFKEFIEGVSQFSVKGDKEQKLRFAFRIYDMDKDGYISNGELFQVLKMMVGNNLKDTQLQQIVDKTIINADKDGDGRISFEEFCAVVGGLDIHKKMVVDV

Which IC50 (P388 cells) does the source give for Cn1cc2c3c1C(=O)C1=C(C3=NCC2)C2(C=C(Br)C(=O)C(Br)=C2)CCN1 [discorhabdin P] here?
The IC50 was 0.025 mg/L.

And the IC50 (A549 cells)?
Its IC50 is 0.41 mg/L.

And the inhibition at 0.5 µg/mL (calcineurin; at 0.5 μg/ml)?
The inhibition at 0.5 µg/mL was 33%.

And the inhibition at 5 µg/mL (calcineurin; at 5 μg/ml)?
Its inhibition at 5 µg/mL is 64%.

What about the IC50 (calcineurin) of the same compound?
The IC50 was 1.15 µM.

And the IC50 (CPP32)?
Its IC50 is 0.37 mg/L (≈ 0.775 µM).
